These results are taken from patent US20230159453A1 (COCRYSTAL PHARMA, INC., priority 2020, published 2023).

In this assay the target is SARS2 protease (Severe acute respiratory syndrome coronavirus 2, UniProt P0DTD1). Put plainly: SARS-CoV-2 protease inhibition assay (SARS2 FRET protease assay). The format is biochemical. To be noted: SARS-CoV-2 protease 25 nM, FRET, peptide substrate 1.3 μM, 30 minutes at 30° C., compounds 20 μM to 1.0 nM; read-out: IC50.

A word on the IC50: it is the concentration needed to halve the response being measured.

With `CC(=O)N1CCC2(CC1)CC(CC(C=O)NC(=O)[C@H](CC(C)C)NC(=O)OCC(C)(C)c1cccc(Cl)c1)C(=O)N2` (stereo partly drawn) [Compound C70, 2-(3-Chlorophenyl)-2-methylpropyl ((2S)-1-((1-(8-acetyl-2-oxo-1,8-diazaspiro[4.5]decan-3-yl)-3-oxopropan-2-yl)amino)-4-methyl-1-oxopentan-2-yl)carbamate], the IC50 was found to be 0.1 µM.
As for `CC(C)C[C@H](NC(=O)OC1(Cc2cccnc2)CC1)C(=O)N[C@H](C=O)C[C@@H]1CCNC1=O` [Compound C71, 1-(Pyridin-3-ylmethyl)cyclopropyl ((S)-4-methyl-1-oxo-1-(((S)-1-oxo-3-((S)-2-oxopyrrolidin-3-yl)propan-2-yl)amino)pentan-2-yl)carbamate], the figure is 1.6 µM; as for `CC(C)C[C@H](NC(=O)OCC(C)(C)c1cccc(Cl)c1)C(=O)N[C@@H](C[C@@H]1CCNC1=O)C(O)S(=O)(=O)O` (stereo partly drawn) [Compound C72, Sodium (2S)-2-((S)-2-(((2-(3-chlorophenyl)-2-methylpropoxy)carbonyl)amino)-4-methylpentanamido)-1-hydroxy-3-((S)-2-oxopyrrolidin-3-yl)propane-1-sulfonate], 0.01 µM.
Turning to `CC(C)C[C@H](NC(=O)OC1(Cc2ccccc2)CCC1)C(=O)N[C@@H](C[C@@H]1CCNC1=O)C(=O)C(N)=O` [Compound C73, 1-Benzylcyclobutyl ((S)-1-(((S)-4-amino-3,4-dioxo-1-((S)-2-oxopyrrolidin-3-yl)butan-2-yl)amino)-4-methyl-1-oxopentan-2-yl)carbamate], the IC50 was determined as 0.6 µM.
In the case of `CC(=O)N1CCC2(CC1)CC(CC(C=O)NC(=O)[C@H](CC(C)C)NC(=O)c1cc3ccccc3[nH]1)C(=O)N2` (stereo partly drawn) [Compound C74, N-((2S)-1-((1-(8-acetyl-2-oxo-1,8-diazaspiro[4.5]decan-3-yl)-3-oxopropan-2-yl)amino)-4-methyl-1-oxopentan-2-yl)-1H-indole-2-carboxamide], the IC50 came out at 0.14 µM.
In the case of `CC(=O)N1CCC2(CC1)CC(CC(C=O)NC(=O)[C@H](CC1CCCCC1)NC(=O)c1cc3ccccc3[nH]1)C(=O)N2` (stereo partly drawn) [Compound C75, N-((2S)-1-((1-(8-acetyl-2-oxo-1,8-diazaspiro[4.5]decan-3-yl)-3-oxopropan-2-yl)amino)-3-cyclohexyl-1-oxopropan-2-yl)-1H-indole-2-carboxamide], the half-maximal inhibitory concentration (IC50) is 0.0012 µM.
Then `CC(C)C[C@H](NC(=O)OC1(Cc2cccc(OCc3ccccc3)c2)CC1)C(=O)N[C@@H](CC1CCNC1=O)C(O)S(=O)(=O)O` (stereo partly drawn) [Compound C76, Sodium (2S)-2-((S)-2-(((1-(3-(benzyloxy)benzyl)cyclopropoxy)carbonyl)amino)-4-methylpentanamido)-1-hydroxy-3-((S)-2-oxopyrrolidin-3-yl)propane-1-sulfonate], with 0.38 µM; and `CCCC1CCC(OC(=O)N[C@@H](CC(C)C)C(=O)NC(C=O)CC2CC3(CCN(C(C)=O)CC3)NC2=O)CC1` (stereo partly drawn) [Compound C77, 4-Propylcyclohexyl ((2S)-1-((1-(8-acetyl-2-oxo-1,8-diazaspiro[4.5]decan-3-yl)-3-oxopropan-2-yl)amino)-4-methyl-1-oxopentan-2-yl)carbamate], with 0.6 µM.
Then `CC(C)C[C@H](NC(=O)OC(C)(C)Cc1ccccc1)C(=O)N[C@@H](C[C@@H]1CCNC1=O)C(=O)C(N)=O` [Compound C79], with 3.8 µM; and `CCOP(=O)(OCC)C(O)C(CC1CC2(CCN(C(C)=O)CC2)NC1=O)NC(=O)[C@H](CC1CCCCC1)NC(=O)c1cc2ccccc2[nH]1` (stereo partly drawn) [Compound C81, Diethyl (3-(8-acetyl-2-oxo-1,8-diazaspiro[4.5]decan-3-yl)-2-((S)-3-cyclohexyl-2-(1H-indole-2-carboxamido)propanamido)-1-hydroxypropyl)phosphonate], with 0.2 µM; and `CCOP(=O)(OCC)C(O)C(CC1CC2(CCN(C(C)=O)CC2)NC1=O)NC(=O)[C@H](Cc1cccc(F)c1)NC(=O)OCc1cccc(Cl)c1` (stereo partly drawn) [Compound C82, 3-Chlorobenzyl ((2S)-1-((3-(8-acetyl-2-oxo-1,8-diazaspiro[4.5]decan-3-yl)-1-(diethoxyphosphoryl)-1-hydroxypropan-2-yl)amino)-3-(3-fluorophenyl)-1-oxopropan-2-yl)carbamate], with 4.4 µM.
As for `CC(C)C[C@H](NC(=O)OCC(C)(C)c1cccc(Cl)c1)C(=O)NC(C)(C=O)CC1CCNC1=O` (stereo partly drawn) [Compound C83, 2-(3-Chlorophenyl)-2-methylpropyl ((2S)-4-methyl-1-((2-methyl-1-oxo-3-(2-oxopyrrolidin-3-yl)propan-2-yl)amino)-1-oxopentan-2-yl) carbamate], the figure is 1.3 µM; as for `CCOP(=O)(OCC)C(O)C(CC1CC2(CCN(C(C)=O)CC2)NC1=O)NC(=O)[C@H](CC(C)C)NC(=O)OCC(C)(C)c1cccc(Cl)c1` (stereo partly drawn) [Compound C84, 2-(3-Chlorophenyl)-2-methylpropyl ((2S)-1-((3-(8-acetyl-2-oxo-1,8-diazaspiro[4.5]decan-3-yl)-1-(diethoxyphosphoryl)-1-hydroxypropan-2-yl)amino)-4-methyl-1-oxopentan-2-yl)carbamate], 9.2 µM.
`CC(C)C[C@H](NC(=O)OC1CCN(C(=O)OC(C)(C)C)c2ccccc21)C(=O)N[C@@H](C[C@@H]1CCNC1=O)C(=O)C(=O)NCc1ccccn1` (stereo partly drawn) [Compound C86, Tert-butyl 4-((((S)-1-(((S)-3,4-dioxo-1-((S)-2-oxopyrrolidin-3-yl)-4-((pyridin-2-ylmethyl)amino)butan-2-yl)amino)-4-methyl-1-oxopentan-2-yl)carbamoyl)oxy)-3,4-dihydroquinoline-1(2H)-carboxylate]: the IC50 came out at 0.9 µM.
Regarding `CC(C)C[C@H](NC(=O)OCC(C)(C)c1cccc(Cl)c1)C(=O)N[C@@H](C[C@@H]1CCNC1=O)C(=O)C(=O)NC1CC1` [Compound C87, 2-(3-Chlorophenyl)-2-methylpropyl ((S)-1-(((S)-4-(cyclopropylamino)-3,4-dioxo-1-((S)-2-oxopyrrolidin-3-yl)butan-2-yl)amino)-4-methyl-1-oxopentan-2-yl)carbamate], the IC50 was determined as 0.7 µM.
As for `CC(C)C[C@H](NC(=O)OC1(Cc2cccc(Cl)c2)CC1)C(=O)N[C@@H](C[C@@H]1CCNC1=O)C(=O)C(N)=O` [Compound C88, 1-(3-Chlorobenzyl) cyclopropyl ((S)-1-(((S)-4-amino-3,4-dioxo-1-((S)-2-oxopyrrolidin-3-yl)butan-2-yl)amino)-4-methyl-1-oxopentan-2-yl)carbamate], the IC50 stood at 1.3 µM.
Consider `CC(C)C[C@H](NC(=O)OCC(C)(C)c1cccc(Cl)c1)C(=O)N[C@@H](C[C@@H]1CCNC1=O)C(=O)C(N)=O` [Compound C90, 2-(3-chlorophenyl)-2-methylpropyl ((S)-1-(((S)-4-amino-3,4-dioxo-1-((S)-2-oxopyrrolidin-3-yl)butan-2-yl)amino)-4-methyl-1-oxopentan-2-yl)carbamate], for which the IC50 turned out to be 0.1 µM.
Then `COc1cccc(CC2(OC(=O)N[C@@H](CC(C)C)C(=O)N[C@@H](C[C@@H]3CCNC3=O)C(=O)C(N)=O)CC2)c1` [Compound C93, 1-(3-Methoxybenzyl) cyclopropyl ((S)-1-(((S)-4-amino-3,4-dioxo-1-((S)-2-oxopyrrolidin-3-yl)butan-2-yl)amino)-4-methyl-1-oxopentan-2-yl) carbamate], with greater than 20 µM.
